The results in this text go back to ChEMBL document CHEMBL1201862, “PubChem BioAssay data set” (2004).

Each structure is given as a SMILES string.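 Cells were grown in 96-well plates and exposed to each compound for 48 hours at five concentrations; endpoints were interpolated linearly between bracketing concentrations, or set to the highest concentration if not reached. GI50 is the concentration that inhibits growth by half.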 The source made the active and inactive calls. Rule as the data show it: active = GI50 up to about 1.1 µM and inactive = higher.

Test systems include A549; OVCAR-5; SR; HCT-15; OVCAR-4; SNB-19; UACC-257; SN12C; U-251; SK-MEL-2; KM12; SNB-75; NCI-H226; K562; M14; SW-620; LOX IMVI; MDA-MB-435; Hs-578T.
Common to all, as to assay: inhibition of tumour cell growth, NCI panel, 48 h

With `CC(=O)CSCc1ccccn1`, the GI50 was 62.5 µM (inactive) with A549; > 100 µM (inactive) with OVCAR-5; 21.5 µM (inactive) with SR; 86.5 µM with HCT-15; 83.8 µM (inactive) in the assay on OVCAR-4; 50.9 µM (inactive) with SNB-19. Further, the GI50 in the assay on UACC-257 was 41.1 µM (inactive); in the assay with SN12C, 75.5 µM (inactive); in the assay with U-251, 32.2 µM (inactive); in the assay on SK-MEL-2, 25.9 µM (inactive); in the assay on KM12, 36.8 µM (inactive); with SNB-75, 29.4 µM (inactive). Also, the GI50 with NCI-H226 is 19.9 µM (inactive); with K562 it was 23.6 µM (inactive); in the assay on M14, 60.5 µM (inactive); in the assay with SW-620 it was 45.8 µM (inactive); with LOX IMVI, 41.5 µM (inactive); with MDA-MB-435, 33.4 µM (inactive). Moreover, the GI50 with Hs-578T was 2.69 µM (inactive).
For `Cn1c(Sc2ccc(-c3cccnc3)n2C)ccc1-c1cccnc1`, the GI50 is 26.4 µM (inactive) in the assay with A549; 22.9 µM (inactive) in the assay on OVCAR-5; 2.13 µM (inactive) in the assay on SR; 16.8 µM with HCT-15; 14.6 µM (inactive) in the assay on OVCAR-4; 19.6 µM (inactive) in the assay on SNB-19. In addition, the GI50 in the assay with UACC-257 is 12.4 µM (inactive); in the assay on SN12C it was 16.8 µM (inactive); in the assay on U-251, 13.1 µM (inactive); in the assay on SK-MEL-2, 14.2 µM (inactive); in the assay on KM12, 18 µM (inactive); in the assay with SNB-75, 21.8 µM (inactive). Further, the GI50 with NCI-H226 was 24.5 µM (inactive); in the assay with K562, 3.12 µM (inactive); in the assay with M14 it was 17.1 µM (inactive); in the assay with SW-620, 6.93 µM (inactive); in the assay on LOX IMVI, 3.73 µM (inactive); in the assay with MDA-MB-435, 13.4 µM (inactive). The GI50 in the assay on Hs-578T is 3.7 µM (inactive).
`N=C(N)SCc1ccc(Cl)c2ccccc12.O=[N+]([O-])c1c(O)c(Cl)cc(Cl)c1Cl`: the GI50 in the assay with A549 was 14.6 µM (inactive); with OVCAR-5, 13 µM (inactive); with SR, 5.42 µM (inactive); in the assay on HCT-15, 14.3 µM; in the assay on OVCAR-4, 4.65 µM (inactive); with SNB-19 it was 14.4 µM (inactive). The GI50 is 4.72 µM (inactive) in the assay with UACC-257; 11.3 µM (inactive) with SN12C; 12.9 µM (inactive) in the assay on U-251; 8.95 µM (inactive) in the assay on SK-MEL-2; 13.6 µM (inactive) in the assay with KM12; 11.1 µM (inactive) in the assay with SNB-75. Further, the GI50 in the assay with NCI-H226 was 12 µM (inactive); in the assay with K562, 4.66 µM (inactive); with M14, 10.3 µM (inactive); in the assay with SW-620, 12.2 µM (inactive); with LOX IMVI it was 14.4 µM (inactive); with MDA-MB-435, 8.38 µM (inactive). In the assay with Hs-578T, the GI50 is 17.9 µM (inactive).
Take `OCCN(CCO)CCn1cnc2c(NCc3ccccc3)ncnc21`: the GI50 is > 100 µM (inactive) in the assay with A549; > 100 µM (inactive) with OVCAR-5; > 100 µM (inactive) with SR; over 100 µM with HCT-15; > 100 µM (inactive) in the assay on OVCAR-4; > 100 µM (inactive) in the assay on SNB-19. For the same compound, the GI50 in the assay on UACC-257, in the assay on SN12C, in the assay on U-251, in the assay with SK-MEL-2, with KM12 and with SNB-75 was > 100 µM (inactive) throughout. Besides, the GI50 in the assay on NCI-H226, in the assay on K562, in the assay on M14, in the assay on SW-620, with LOX IMVI and in the assay on MDA-MB-435 was > 100 µM (inactive) in each case. In addition, the GI50 with Hs-578T was > 100 µM (inactive).
Regarding `Cc1cccc(NC(=S)Nc2ccccc2Cl)n1`, the GI50 was 47.6 µM (inactive) in the assay on A549; 81.7 µM (inactive) with OVCAR-5; > 100 µM (inactive) in the assay with SR; 76.9 µM in the assay on HCT-15; 24.4 µM (inactive) with OVCAR-4; 25.1 µM (inactive) in the assay on SNB-19. Besides, the GI50 in the assay on UACC-257 was 22.2 µM (inactive); in the assay with SN12C it was 51.8 µM (inactive); with U-251, 33.6 µM (inactive); with SK-MEL-2, > 100 µM (inactive); in the assay on KM12, 25.8 µM (inactive); with SNB-75, 19.3 µM (inactive). The GI50 is 39 µM (inactive) with NCI-H226; > 100 µM (inactive) in the assay with K562; > 100 µM (inactive) with M14; > 100 µM (inactive) in the assay with SW-620; > 100 µM (inactive) in the assay on LOX IMVI; > 100 µM (inactive) in the assay on MDA-MB-435. Also, the GI50 in the assay with Hs-578T is 38.4 µM (inactive).
Consider `S=C1c2ccc(Cl)cc2-n2cnnc2C2CSCN12` (centres undefined), for which the GI50 is > 100 µM (inactive) in the assay on A549; > 100 µM (inactive) in the assay with OVCAR-5; 52.4 µM (inactive) in the assay on SR; over 100 µM in the assay on HCT-15; > 100 µM (inactive) in the assay on OVCAR-4; > 100 µM (inactive) in the assay with SNB-19. In addition, the GI50 with UACC-257, with SN12C, with U-251, in the assay with SK-MEL-2, in the assay with KM12 and in the assay with SNB-75 was > 100 µM (inactive) in each case. In addition, the GI50 in the assay with NCI-H226 was > 100 µM (inactive); in the assay on K562, 13.9 µM (inactive); in the assay with M14, > 100 µM (inactive); with SW-620, > 100 µM (inactive); in the assay on LOX IMVI, > 100 µM (inactive); with MDA-MB-435, 95.1 µM (inactive). For the same compound, the GI50 in the assay with Hs-578T is > 100 µM (inactive).
With `CN(CCNC(=O)c1cn(C)c2c1ccc1cc(Cl)c(Cl)cc12)CCNC(=O)c1cn(C)c2c1ccc1cc(Cl)c(Cl)cc12`, the GI50 in the assay on A549 is 1.82 µM (inactive); in the assay with OVCAR-5 it was 2.79 µM (inactive); in the assay on SR it was 0.56 µM (active); in the assay on HCT-15 it was 1.74 µM; in the assay with OVCAR-4, 2.5 µM (inactive); in the assay on SNB-19, 2.08 µM (inactive). The GI50 in the assay with UACC-257 was 2.41 µM (inactive); in the assay on SN12C, 1.74 µM (inactive); with U-251 it was 1.77 µM (inactive); with SK-MEL-2, 1.84 µM (inactive); in the assay with KM12, 1.75 µM (inactive); with SNB-75, 1.58 µM (inactive). The GI50 is 24.7 µM (inactive) in the assay on NCI-H226; 0.535 µM (active) in the assay on K562; 1.75 µM (inactive) with M14; 1.8 µM (inactive) in the assay with SW-620; 1.74 µM (inactive) with LOX IMVI; 1.77 µM (inactive) with MDA-MB-435. Besides, in the assay with Hs-578T, the GI50 was 2.17 µM (inactive).
With `O=c1c2cccnc2cc(-c2ccccc2)n1CCO`, the GI50 in the assay with A549 is > 100 µM (inactive); in the assay on OVCAR-5, > 100 µM (inactive); in the assay with SR, > 100 µM (inactive); in the assay on HCT-15 it was over 100 µM; in the assay on OVCAR-4 it was > 100 µM (inactive); in the assay with SNB-19, > 100 µM (inactive). The GI50 in the assay on UACC-257, with SN12C, in the assay with U-251, in the assay with SK-MEL-2, with KM12 and in the assay on SNB-75 was > 100 µM (inactive) throughout. For the same compound, the GI50 in the assay on NCI-H226, in the assay on K562, in the assay on M14, in the assay on SW-620, with LOX IMVI and in the assay with MDA-MB-435 was > 100 µM (inactive) in each case. In addition, the GI50 with Hs-578T was > 100 µM (inactive).
Regarding `C=CC1(C)CCC2C(=CCC3C(C)(COC4OC(C(=O)O)C(O)C(O)C4O)C(O)CCC23C)C1.C=CC1(C)CCC2C(=CCC3C2(C)CC(O)C(O)C3(C)COC2OC(C(=O)O)C(O)C(O)C2O)C1` (centres undefined), the GI50 in the assay with A549 was > 100 µM (inactive); with OVCAR-5, > 100 µM (inactive); in the assay with SR, 44.6 µM (inactive); in the assay with HCT-15, over 100 µM; in the assay with OVCAR-4, > 100 µM (inactive); in the assay with SNB-19, > 100 µM (inactive). The GI50 is 83.4 µM (inactive) with UACC-257; > 100 µM (inactive) with SN12C; > 100 µM (inactive) in the assay with U-251; > 100 µM (inactive) in the assay with SK-MEL-2; > 100 µM (inactive) with KM12; > 100 µM (inactive) in the assay on SNB-75. Moreover, the GI50 is > 100 µM (inactive) in the assay on NCI-H226; 54.5 µM (inactive) in the assay on K562; > 100 µM (inactive) in the assay on M14; > 100 µM (inactive) with SW-620; > 100 µM (inactive) in the assay on LOX IMVI; > 100 µM (inactive) in the assay on MDA-MB-435. The GI50 with Hs-578T was > 100 µM (inactive).
On to `S=c1nc2[nH]c3ccc(Br)cc3c2n[nH]1`, for which the GI50 is 55 µM (inactive) in the assay with A549; > 100 µM (inactive) with OVCAR-5; 19 µM (inactive) with SR; 22.1 µM in the assay with HCT-15; 25 µM (inactive) in the assay on OVCAR-4; > 100 µM (inactive) in the assay on SNB-19. Besides, the GI50 in the assay on UACC-257 is 62.5 µM (inactive); with SN12C, 66.1 µM (inactive); in the assay with U-251, 53.2 µM (inactive); in the assay with SK-MEL-2, 25.6 µM (inactive); in the assay on KM12 it was 29.2 µM (inactive); with SNB-75, 40.4 µM (inactive). Further, the GI50 in the assay on NCI-H226 is 94.6 µM (inactive); with K562, 47.8 µM (inactive); in the assay on M14 it was 51.5 µM (inactive); in the assay on SW-620 it was 53 µM (inactive); in the assay with LOX IMVI, 30.1 µM (inactive); in the assay on MDA-MB-435, 20.7 µM (inactive). The GI50 in the assay with Hs-578T was 28.9 µM (inactive).
Turning to `O=C(CNc1ccccc1C(=O)O)Nn1cnc2ccc(S(=O)(=O)Nc3ccccc3C(=O)O)cc2c1=O`, the GI50 is > 100 µM (inactive) in the assay on A549; > 100 µM (inactive) in the assay with OVCAR-5; > 100 µM (inactive) with SR; over 100 µM with HCT-15; > 100 µM (inactive) with OVCAR-4; > 100 µM (inactive) in the assay on SNB-19. For the same compound, the GI50 in the assay with UACC-257, in the assay on SN12C, with U-251, in the assay with SK-MEL-2, in the assay with KM12 and in the assay with SNB-75 was > 100 µM (inactive) throughout. For the same compound, the GI50 in the assay with NCI-H226, with K562, with M14, with SW-620, in the assay on LOX IMVI and in the assay with MDA-MB-435 was > 100 µM (inactive) in each case. For the same compound, the GI50 with Hs-578T was > 100 µM (inactive).
